{
  "source": "ChEMBL document CHEMBL1143213",
  "about": "“Anticancer activity of (1,2,3,5-tetrahydro-4,1-benzoxazepine-3-yl)-pyrimidines and -purines against the MCF-7 cell line: Preliminary cDNA microarray studies” (Bioorg Med Chem Lett, 2008)",
  "note": "Active and inactive are the calls of the source. No cut-off for these calls is given here.",
  "data": [
    {"test_system": "MCF7", "assay": "(§1) Antiproliferative activity against human MCF7 cells", "type": "functional, cell-based", "details": "Homo sapiens, MCF7", "units": {"IC50": "µM"}, "values": [
      {"smiles": "O=[N+]([O-])c1ccccc1S(=O)(=O)N1CC(n2cnc3ncnc(Cl)c32)OCc2ccccc21", "note": "(stereo unspecified)", "IC50": 0.92},
      {"smiles": "O=[N+]([O-])c1ccccc1S(=O)(=O)N1CC(n2cnc3ncnc(Sc4ccccc4)c32)OCc2ccccc21", "note": "(stereo unspecified)", "IC50": 2.59},
      {"smiles": "O=c1ccn(C2CN(S(=O)(=O)c3ccc([N+](=O)[O-])cc3)c3ccccc3CO2)c(=O)[nH]1", "note": "(stereo unspecified)", "IC50": 39.8},
      {"smiles": "O=[N+]([O-])c1ccc(S(=O)(=O)N2CC(n3cnc4ncnc(O)c43)OCc3ccccc32)cc1", "note": "(stereo unspecified)", "IC50": "> 100"},
      {"smiles": "O=c1[nH]c(=O)n(C2CNc3ccccc3CO2)cc1F", "note": "(stereo unspecified)", "IC50": "> 100"},
      {"smiles": "O=c1[nH]c(=O)n(C2CN(S(=O)(=O)c3ccccc3[N+](=O)[O-])c3ccccc3CO2)cc1F", "note": "(stereo unspecified)", "IC50": 19.7},
      {"smiles": "O=c1[nH]cc(F)c(=O)n1C1CN(S(=O)(=O)c2ccccc2[N+](=O)[O-])c2ccccc2CO1", "note": "(stereo unspecified)", "IC50": 22.6},
      {"smiles": "O=c1[nH]cc(F)c(=O)n1C1CN(S(=O)(=O)c2ccc([N+](=O)[O-])cc2)c2ccccc2CO1", "note": "(stereo unspecified)", "IC50": 19.8},
      {"smiles": "O=C(OCC1c2ccccc2-c2ccccc21)N1CC(n2cnc3ncnc(Cl)c32)OCc2ccccc21", "note": "(stereo unspecified)", "IC50": 0.84},
      {"smiles": "COC(CN(c1ccccc1CO)S(=O)(=O)c1ccccc1[N+](=O)[O-])n1cc(F)c(=O)[nH]c1=O", "note": "(stereo unspecified)", "IC50": 91},
      {"smiles": "COC(CN(c1ccccc1CO)S(=O)(=O)c1ccc([N+](=O)[O-])cc1)n1c(=O)cc[nH]c1=O", "note": "(stereo unspecified)", "IC50": 55.2},
      {"smiles": "Clc1ncnc2ncn(C3CSc4ccccc4CO3)c12", "note": "(stereo unspecified)", "IC50": 1.25},
      {"smiles": "O=[N+]([O-])c1ccccc1S(=O)(=O)N1CC(n2cnc3ncnc(O)c32)OCc2ccccc21", "note": "(stereo unspecified)", "IC50": 19.7},
      {"smiles": "COC(CN(c1ccccc1CO)S(=O)(=O)c1ccccc1[N+](=O)[O-])n1ccc(=O)[nH]c1=O", "note": "(stereo unspecified)", "IC50": 64.8},
      {"smiles": "Nc1ccc(S(=O)(=O)N2CC(n3cc(F)c(=O)[nH]c3=O)OCc3ccccc32)cc1", "note": "(stereo unspecified)", "IC50": 14.4},
      {"smiles": "O=c1ccn(C2COc3ccccc3CO2)c(=O)[nH]1", "note": "(stereo unspecified)", "IC50": 1.25},
      {"smiles": "COC(CN(c1ccccc1CO)S(=O)(=O)c1ccccc1N)n1cc(F)c(=O)[nH]c1=O", "note": "(stereo unspecified)", "IC50": "> 100"},
      {"smiles": "Nc1ccccc1S(=O)(=O)N1CC(n2c(=O)[nH]cc(F)c2=O)OCc2ccccc21", "note": "(stereo unspecified)", "IC50": 43.7},
      {"smiles": "COC(CN(C(=O)c1ccccc1)c1ccccc1CO)n1cc(F)c(=O)[nH]c1=O", "note": "(stereo unspecified)", "IC50": 16.1},
      {"smiles": "O=c1cc[nH]c(=O)n1C1CN(S(=O)(=O)c2ccc([N+](=O)[O-])cc2)c2ccccc2CO1", "note": "(stereo unspecified)", "IC50": 44.3},
      {"smiles": "O=[N+]([O-])c1ccc(S(=O)(=O)N2CC(n3cnc4c(Cl)ncnc43)OCc3ccccc32)cc1", "note": "(stereo unspecified)", "IC50": 2.73},
      {"smiles": "COC(CN(c1ccccc1CO)S(=O)(=O)c1ccc([N+](=O)[O-])cc1)n1cc(F)c(=O)[nH]c1=O", "note": "(stereo unspecified)", "IC50": 55.2},
      {"smiles": "FC(F)(F)c1ncnc2c1ncn2C1COc2ccccc2CO1", "note": "(stereo unspecified)", "IC50": 1.25},
      {"smiles": "COC(CN(c1ccccc1CO)S(=O)(=O)c1ccc([N+](=O)[O-])cc1)n1cnc2c(Cl)ncnc21", "note": "(stereo unspecified)", "IC50": 18.7},
      {"smiles": "Nc1ccccc1S(=O)(=O)N1CC(n2cnc3ncnc(Cl)c32)OCc2ccccc21", "note": "(stereo unspecified)", "IC50": 9.14},
      {"smiles": "O=[N+]([O-])c1ccc(S(=O)(=O)N2CC(n3cnc4ncnc(Sc5ccccc5)c43)OCc3ccccc32)cc1", "note": "(stereo unspecified)", "IC50": 0.86},
      {"smiles": "Clc1ncnc2c1ncn2C1COc2ccccc2CO1", "note": "(stereo unspecified)", "IC50": 1.25},
      {"smiles": "Clc1ncnc2ncn(C3COc4ccccc4CO3)c12", "note": "(stereo unspecified)", "IC50": 1.25},
      {"smiles": "Nc1ccccc1S(=O)(=O)N1CC(n2cc(F)c(=O)[nH]c2=O)OCc2ccccc21", "note": "(stereo unspecified)", "IC50": 54.8},
      {"smiles": "O=S1(=O)CC(n2cnc3c(Cl)ncnc32)OCc2ccccc21", "note": "(stereo unspecified)", "IC50": 1.25},
      {"smiles": "COC(CN(c1ccccc1CO)S(=O)(=O)c1ccc([N+](=O)[O-])cc1)n1ccc(=O)[nH]c1=O", "note": "(stereo unspecified)", "IC50": 45.8},
      {"smiles": "O=c1[nH]cc(F)c(=O)n1C1CNc2ccccc2CO1", "note": "(stereo unspecified)", "IC50": 72.4},
      {"smiles": "O=c1cc[nH]c(=O)n1C1CN(S(=O)(=O)c2ccccc2[N+](=O)[O-])c2ccccc2CO1", "note": "(stereo unspecified)", "IC50": 50.9},
      {"smiles": "Clc1nc(Cl)c2ncn(C3COc4ccccc4CO3)c2n1", "note": "(stereo unspecified)", "IC50": 1.25},
      {"smiles": "O=[N+]([O-])c1ccc(S(=O)(=O)N2CC(n3cnc4ncnc(Cl)c43)OCc3ccccc32)cc1", "note": "(stereo unspecified)", "IC50": 1.22},
      {"smiles": "O=C(OCC1c2ccccc2-c2ccccc21)N1CC(n2cnc3c(Cl)ncnc32)OCc2ccccc21", "note": "(racemic)", "IC50": 0.67},
      {"smiles": "Clc1nc(Cl)c2c(ncn2C2COc3ccccc3CO2)n1", "note": "(stereo unspecified)", "IC50": 1.25},
      {"smiles": "COC(CNc1ccccc1CO)n1cc(F)c(=O)[nH]c1=O", "note": "(stereo unspecified)", "IC50": 36},
      {"smiles": "O=C(OCC1c2ccccc2-c2ccccc21)N1CC(n2cnc3ncnc(O)c32)OCc2ccccc21", "note": "(stereo unspecified)", "IC50": 53.6},
      {"smiles": "O=c1[nH]c(=O)n(C2CN(S(=O)(=O)c3ccc([N+](=O)[O-])cc3)c3ccccc3CO2)cc1F", "note": "(stereo unspecified)", "IC50": 19.3},
      {"smiles": "Ic1ncnc2c1ncn2C1COc2ccccc2CO1", "note": "(stereo unspecified)", "IC50": 1.25},
      {"smiles": "Ic1ncnc2ncn(C3COc4ccccc4CO3)c12", "note": "(stereo unspecified)", "IC50": 1.25},
      {"smiles": "COc1ccc2c(c1)COC(n1cc(F)c(=O)[nH]c1=O)CO2", "note": "(stereo unspecified)", "IC50": 1.25},
      {"smiles": "O=[N+]([O-])c1ccccc1S(=O)(=O)N1CC(n2cnc3c(Cl)ncnc32)OCc2ccccc21", "note": "(stereo unspecified)", "IC50": 2.1},
      {"smiles": "Clc1ncnc2c1ncn2C1CSc2ccccc2CO1", "note": "(stereo unspecified)", "IC50": 1.25},
      {"smiles": "c1ccc(Sc2ncnc3ncn(C4CNc5ccccc5CO4)c23)cc1", "note": "(stereo unspecified)", "IC50": 48.9},
      {"smiles": "O=c1ccn(C2CN(S(=O)(=O)c3ccccc3[N+](=O)[O-])c3ccccc3CO2)c(=O)[nH]1", "note": "(stereo unspecified)", "IC50": 45.2}
    ]},
    {"test_system": "MCF7", "assay": "as §1", "type": "functional, cell-based", "details": "mcf7", "units": {"IC50": "µM"}, "values": [
      {"smiles": "COC(CN(c1ccccc1CO)S(=O)(=O)c1ccccc1[N+](=O)[O-])n1cnc2c(Cl)ncnc21", "note": "(stereo in doubt; 51)", "IC50": 11.3}
    ]},
    {"test_system": "MCF7", "assay": "Induction of GP132 gene expression in human MCF7 cells by microarray", "type": "functional, cell-based", "details": "not given", "values": [
      {"smiles": "O=C(OCC1c2ccccc2-c2ccccc21)N1CC(n2cnc3c(Cl)ncnc32)OCc2ccccc21", "note": "(racemic)", "Activity": "Active"}
    ]},
    {"test_system": "MCF7", "assay": "Induction of ERN1 gene expression in human MCF7 cells by microarray", "type": "functional, cell-based", "details": "not given", "values": [
      {"smiles": "O=C(OCC1c2ccccc2-c2ccccc21)N1CC(n2cnc3c(Cl)ncnc32)OCc2ccccc21", "note": "(racemic)", "Activity": "Active"}
    ]},
    {"test_system": "MCF7", "assay": "Down regulation of RAC1 gene expression in human MCF7 cells by microarray", "type": "functional, cell-based", "details": "not given", "values": [
      {"smiles": "O=[N+]([O-])c1ccc(S(=O)(=O)N2CC(n3cnc4ncnc(Sc5ccccc5)c43)OCc3ccccc32)cc1", "note": "(stereo unspecified)", "Activity": "Active"}
    ]}
  ]
}
